The test system of the assay is CEM cells HIV-1 protection, formazan growth assay. Nature of the assay: NCI AIDS Antiviral Assay. The note with it: for IC50: measured here: growth of uninfected CEM cells. Summed up: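 Five concentrations of each compound were applied to infected and uninfected human CEM cells. Protection from HIV-1 was judged from growth measured with a soluble formazan assay.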

Values joined by “and” are separate entries in the source; they are usually repeats but may differ in a detail not shown here. Equal entries are not always repeated. Active and inactive are the calls of the source.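 Rule for the calls: active = compounds giving half or more protection of infected cells from virus-caused growth loss, again on retest; inactive = the rest.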 Where a SMILES comes first, the peptide text is derived from it. [ ]: non-standard residue; d: D form. The star is where a group is joined. hSer = N[CH](CCO)C(=O)O; Boc = CC(C)(C)OC(=O)*

The term EC50 denotes the concentration needed to bring the measured effect to its halfway point. The IC50 is the concentration that gives 50% inhibition. High values mean weaker potency in that assay, low ones greater potency in that assay. As to `CCOc1ccc2nc3nc(=O)[nH]c(C)c3c(NCCCN(CC)CC)c2c1`, the EC50 is over 200 µM and the IC50 was over 200 µM. For the molecule `O=C(O)/C=C/c1ccc[c]([Sb](=[O])([OH])[OH])c1`, the EC50 was 2.82 µM and the IC50 is over 200 µM.

Consider `O=C1OCC(Cc2ccc3c(c2)OCO3)[C@H]1Cc1cccc(O)c1` (stereo partly drawn), for which the EC50 is over 200 µM and the IC50 amounted to 79.4 µM. For `Nc1ccc(N=Nc2ccc(/C=C/c3ccc(N=Nc4ccc(N)c5ccccc45)cc3S(=O)(=O)O)c(S(=O)(=O)O)c2)c2ccccc12` the same measures were over 50.1 µM and 37.2 µM.

As for `N#Cc1c(N)c(C(=O)Nc2ccc(Cl)cc2)n2c1CCC2`, the EC50 was over 200 µM and the IC50 is over 200 µM. As to `CCOC(=O)c1oc2cc(O)cc(O)c2c(=O)c1-c1ccc(OC)cc1`, the EC50 was over 200 µM and the IC50 is 21.9 µM. With `O=C(c1ccccc1)C(Nc1nc2nc(-c3ccccc3)c(-c3ccccc3)n2[nH]1)c1ccccc1` (stereo not drawn), the EC50 is over 200 µM and the IC50 came to 27.5 µM. For `CCCCC(c1nc2c(c3c1CCCC3)CCCC2)C(O)(C(F)(F)F)C(F)(F)F` (stereo not drawn), in that order: over 200 µM and 38.9 µM. For `CN1CN(c2ccccc2)C2(CCN(CCCC3(c4cccs4)OCCO3)CC2)C1=O` the same measures were over 200 µM and 107 µM. For `O=C1/C(=C/c2ccc([N+](=O)[O-])cc2)CNC/C1=C\c1ccc([N+](=O)[O-])cc1`, in that order: over 2 µM and 0.363 µM. As to `N#C/C=C/c1ccc(C#N)cc1`, the EC50 was over 64.6 µM and the IC50 was over 64.6 µM. Take `COc1ccc(/C=C/C(=O)Oc2ccccc2OC)cc1`: the EC50 was over 200 µM and the IC50 came to 0.398 µM. As to `CC1(C)C2CCC1(C)C(N=C(N)CSS(=O)(=O)O)C2` (stereo not drawn), the EC50 was over 200 µM; the IC50 was 49 µM and 30.9 µM. With `O=C1CCC2CCC1C2` (stereo not drawn), the EC50 was over 200 µM and the IC50 is over 200 µM. Consider `CN(C)c1ccc(-c2[nH]c(=O)c3ccccc3[n+]2C)cc1`, for which the EC50 is over 200 µM and the IC50 came out at 66.1 µM. For `CN(CCO)CNC(=O)C1=C(O)C2(O)C(=O)C3=C(O)c4c(O)cccc4C(C)(O)C3CC2C(N(C)C)C1=O` (stereo not drawn) the same measures were over 178 µM and over 178 µM. For `Cc1nc2cc(F)c(F)cc2[nH]c1=O`, the EC50 was over 200 µM and the IC50 stood at 174 µM. Take `C[C@]12CCC3[C@@H](CC[C@@H]4c5nonc5CC[C@]34C)C1C/C(=N/O)C2=O` (stereo partly drawn): the EC50 was over 105 µM and the IC50 was found to be 95.5 µM. With `Nc1ccc(OCC(O)N2C(=O)c3ccccc3C2=O)cc1` (stereo not drawn), the EC50 is over 200 µM and the IC50 was over 200 µM. For `CCOP(=O)(Cc1c(Cl)c(Cl)c(CP(=O)(OCC)OCC)c(Cl)c1Cl)OCC`, the EC50 is over 200 µM and the IC50 amounted to 26.9 µM. For `CC(=O)OCC12CCC3C4(C)CCCC(C)(C)C4CCC3(C)C1CC(C1=CC(=O)OC1O)O2` (stereo not drawn) the same measures were over 200 µM and 1.05 µM. `O=C(Cc1ccccc1)c1ccc(O)cc1O`: the EC50 is over 200 µM and the IC50 was 85.1 µM. For `CCOc1ccc(-c2coc3cc(C)c(OCC)c(C)c3c2=O)cc1` the same measures were over 200 µM and over 200 µM.

Regarding `COc1cccc(C(CC(=O)O)=NCCc2c[nH]c3ccccc23)c1C(=O)O`, the EC50 is over 603 µM and the IC50 is 316 µM.

Consider `COCCC(NC(=O)C(CC(C)C)NC(=O)OC(C)(C)C)C(=O)OC` (stereo not drawn) (Boc-Leu-[hSer](Me)-OMe; configuration not given here), for which the EC50 is over 200 µM and the IC50 was 26.9 µM. For `CCc1nc2c(O)ccc(O)c2nc1C`, in that order: over 178 µM and 10.5 µM. For `O=C(c1cccs1)N(C(=S)N1CCN(c2ccccc2)CC1)C1CCCCC1` the same measures were over 12.6 µM and over 12.6 µM.

On to `COC(=O)[C@@H]1CN(C(C)=O)C(=O)N1C(=O)OCc1ccccc1`, for which the EC50 is over 200 µM and the IC50 is over 200 µM.

In the case of `O=C(Nc1ccc(Cl)cc1)Nc1ccc(Cl)c(Cl)c1`, the EC50 is over 200 µM and the IC50 turned out to be 2.95 µM. As to `CC(=O)NCC1OC2COC(c3ccccc3)OC2C2N=C(c3ccccc3)OC12` (stereo not drawn), the result was inactive. On to `CC(C)(C)OC(=O)N[C@@H]1C(=O)N2CCCOC12` (stereo partly drawn), for which the result was inactive. As to `CSc1nc(=O)c2nc(-c3cccs3)c(-c3cccs3)nc2n1C`, the EC50 is over 100 µM and the IC50 was over 100 µM. For `COc1ccccc1NC(=S)N/C=C(\C#N)C(=O)c1ccc2ccccc2c1`, the EC50 is over 200 µM and the IC50 was determined as 37.2 µM.

As to `CCOC(=O)C1=C(O)C2C3CC4C2C(O)=C(C(=O)OCC)C2C1C3C42` (stereo not drawn), the EC50 was over 200 µM and the IC50 amounted to 93.3 µM. For `C=C(OC1C(C)=C2C(C1OC(=O)CCCCCCC)C(C)(OC(C)=O)CC(OC(=O)CCC)C1(O)C2OC(=O)C1(C)O)/C(C)=C/C` (stereo not drawn), the EC50 is over 2 µM and the IC50 amounted to 0.00282 µM.

Consider `Nc1nc(Cl)cc(OCC2CC(O)(CO)C2)n1` (stereo not drawn), for which the EC50 was over 200 µM and the IC50 was over 200 µM. In the case of `O=C1/C(=C/c2ccc3c(c2)OCO3)Sc2scc(-c3ccc(O)c(O)c3)[n+]21`, the EC50 was over 200 µM and the IC50 was found to be 1.1 µM. For `Nc1nc(=O)n(C2OC(CO)C(O)C2Cl)cc1I` (stereo not drawn), in that order: over 200 µM and 1.17 µM.

Turning to `CCOP(N)(=O)c1ccccc1` (stereo not drawn), the EC50 is over 200 µM and the IC50 is over 200 µM. As to `CON(C)C(=O)C(C)N(Cc1ccccc1)Cc1ccccc1` (stereo not drawn), the EC50 was over 83.2 µM and the IC50 is 33.1 µM.

Turning to `O=C1C(Br)=C(Br)C(=O)c2ccc(=O)ccc21`, the EC50 was over 55 µM and the 50% inhibitory concentration (IC50) came to 9.77 µM. Regarding `C=C(C)/C=C/C(O)[C@](C)(O)[C@H]1[C@H](O)C[C@@]2(C)[C@@H]3CCc4c(cc(OC5OC(CO)C(O)C(O)C5O)c(O)c4C)C3(C)C(=O)C[C@]12C` (stereo partly drawn), the EC50 was over 200 µM and the IC50 is over 200 µM.

In the case of `COc1cccc(-c2cc(=O)c3cc(C)c(C)c(C(=O)O)c3o2)c1`, the outcome was inactive. As to `CNC(=O)C(C)NC(=O)C(Cc1ccccc1)NC(=O)c1ccccc1` (stereo not drawn), the EC50 was over 200 µM and the IC50 was over 200 µM.

Regarding `CC1(C)CCC2=C(C1)Nc1ccc(Cl)cc1NC2c1ccc([N+](=O)[O-])cc1` (stereo not drawn), the EC50 was over 200 µM and the IC50 was found to be 24.5 µM. Regarding `Nc1nc(N)c(Br)c(Nc2ccc(Cl)c(Cl)c2)n1`, the EC50 is 52.5 µM and the IC50 stood at 155 µM. For `CCCNC(=O)Cn1c(C)cc2ccccc21` the same measures were over 200 µM and over 200 µM. As for `O=C(N/N=C1\C(=O)N(c2nccs2)C(=O)C(=O)C1c1nc2ccccc2s1)c1ccccc1O` (stereo not drawn), the result was inactive.

For `CC(C)N(/C(F)=N\C(=O)Nc1ccccc1C(F)(F)F)C(C)C`, the EC50 was over 200 µM and the IC50 is 38.9 µM. For `CCCCS(=O)(=O)CCC(N)P(=O)(O)O` (stereo not drawn) the same measures were over 200 µM and over 200 µM. For `CC(=O)OC[C@@H](OC(C)=O)[C@H](OC(C)=O)[C@@H]1OC(C)(C)O[C@@H]1C1SCCCS1`, in that order: over 200 µM and over 200 µM.

As for `O=C(NNC(=O)c1cc(/C=C/c2cccc([N+](=O)[O-])c2)[nH]c(=S)n1)Nc1ccc(Cl)cc1`, the EC50 was over 11 µM and the IC50 was over 11 µM.

As for `Cc1ccc(N=Nc2c(O)c(S(=O)(=O)O)cc3cc(S(=O)(=O)O)ccc23)c(C)c1`, the result was inactive.

With `CS(=O)(=O)OCCN(CCOS(C)(=O)=O)c1ccc(C=Nc2ccc3oc(=O)ccc3c2)cc1`, the EC50 is over 135 µM and the IC50 turned out to be 1.02 µM. `CN(C)CCNc1ccc(CO)c2oc3ccc(O)cc3c(=O)c12`: the EC50 is over 398 µM and the concentration for half-maximal inhibition (IC50) came out at 1.15 µM.

Turning to `Cc1cc(S(=O)(=O)Nc2nc(Nc3ccc(Cl)cc3)nn2C)c(S)cc1Cl`, the EC50 is over 200 µM and the IC50 came to 83.2 µM. For `CCCOC(=O)c1cc(C(=CCC[C@H]2CC[C@@]3(C)[C@@H](CC[C@@H]4[C@@H]3CC[C@]3(C)[C@@H](C(C)CCCC(C)C)CC[C@@H]43)C2)c2cc(Cl)c(O)c(C(=O)OCCC)c2)cc(Cl)c1O` (stereo partly drawn), in that order: over 151 µM and over 151 µM. For `CC(C)OP(=O)(OC(C)C)c1nn(-c2ccc([N+](=O)[O-])cc2)c(=N)s1` the same measures were over 129 µM and 93.3 µM. On to `CCOC(=O)c1cnc2c3c(noc13)CCC2`, for which the EC50 was over 200 µM and the IC50 is 34.7 µM. For `C=CCCC(O)c1cc(C)c(O)c(C)c1` (stereo not drawn) the same measures were over 457 µM and 229 µM.

As for `CCCCCCSc1nc(COC(=O)NC)c(COC(=O)NC)n1C`, the EC50 is over 200 µM and the IC50 is over 200 µM. For the molecule `Clc1ccccc1C1=NN(c2ccccc2)C2c3cc(Br)ccc3OCC12` (stereo not drawn), the EC50 was over 81.3 µM and the IC50 was over 81.3 µM.

Turning to `N#CC1=C(O)NC(O)=C(C#N)C1c1c(Cl)cccc1Cl`, the EC50 was over 427 µM and the IC50 came out at 27.5 µM. For `CSc1ccc(/C=C2/C[N+](C)(C)C/C(=C/c3ccc(SC)cc3)C2=O)cc1`, in that order: over 129 µM and 12.3 µM. For `COc1ccc(N(c2ccc(C#N)cc2)c2ccc(C#N)cc2)cc1`, the EC50 was over 45.7 µM and the IC50 amounted to 33.1 µM. For `O=C(O)CC[C@]1(C(=O)O)NC(C(=O)O)Cc2[nH]cnc21` (stereo partly drawn), in that order: over 891 µM and over 891 µM. For the molecule `O=C(/C=C/c1cccc2ccccc12)c1ccccc1[N+](=O)[O-]`, the EC50 is over 200 µM and the IC50 was determined as 3.24 µM.

For `COC(=O)C1CCC(=O)N1C(c1ccc2c(c1)OCO2)c1ccc2c(c1)OCO2` (stereo not drawn), the EC50 was over 200 µM and the IC50 turned out to be 148 µM. Regarding `COC(=O)[C@H](Cc1c[nH]c2ccccc12)NP(=O)(O)CCC1OC(n2cc(C)c(=O)[nH]c2=O)CC1N=[N+]=[N-]` (stereo partly drawn), the EC50 was over 200 µM and the IC50 is over 200 µM.
